One assay has as its target human autoBACE-2 (Homo sapiens (Human), UniProt Q9Y5Z0). The assay is described as follows: BACE-2 assay (BACE-HTRF, time-resolved endpoint proteolysis). The class given is biochemical. The following applies: Ki calculated from IC50 using the Cheng-Prusoff equation; read-out: BACE2 Ki. The procedure:
Inhibitor IC50s at purified human autoBACE-2 are determined in a time-resolved endpoint proteolysis assay that measures hydrolysis of the QSY7-[…]-Eu-amide FRET peptide substrate (BACE-HTRF assay). […] DMSO is present at 5% final concentration in the assay. Following laser excitation of sample wells at 320 nm, the fluorescence signal at 620 nm is collected for 400 ms following a 50 μs delay on a RUBYstar HTRF plate reader (BMG Labtechnologies). Raw RFU data is normalized to maximum (1.0 nM BACE/DMSO) and minimum (no enzyme/DMSO) RFU values. […] The Ki values are calculated from the IC50 using the Cheng-Prusoff equation.

The target of assay [1] is soluble human BACE1 catalytic domain (Homo sapiens (Human), UniProt P56817). The assay is described as follows: BACE1 HTRF FRET assay. The following applies: Ki calculated from IC50 using the Cheng-Prusoff equation. The class given is biochemical. The source says: Na^+-Acetate pH 5.0; 1% Brij-35; Glycerol; Dimethyl Sulfoxide (DMSO); Recombinant human soluble BACE1 catalytic domain (>95% pure); APP Swedish mutant peptide substrate (QSY7-APP^swe-Eu): QSY7-[…]-Europium-amide.
A homogeneous time-resolved FRET assay can be used to determine IC50 values for inhibitors of the soluble human BACE1 catalytic domain. This assay monitors the increase of 620 nm fluorescence that resulted from BACE1 cleavage of an APPswedish APP^swe mutant peptide FRET substrate (QSY7-[…]-Europium-amide). This substrate contains an N-terminal QSY7 moiety that serves as a quencher of the C-terminal Europium fluorophore (620 nm Em). In the absence of enzyme activity, 620 nm fluorescence is low in the assay and increased linearly over 3 hours in the presence of uninhibited BACE1 enzyme Inhibition of BACE1 cleavage of the QSY7-APP^swe-Eu substrate by inhibitors is manifested as a suppression of 620 nm fluorescence.
Varying concentrations of inhibitors at 3× the final desired concentration in a volume of 10 ul are preincubated with purified human BACE1 catalytic domain (3 nM in 10 μl) for 30 minutes at 30° C. in reaction buffer containing 20 mM Na-Acetate pH 5.0, 10% glycerol, 0.1% Brij-35 and 7.5% DSMO. Reactions are initiated by addition of 10 μl of 600 nM QSY7-APP^swe-Eu substrate (200 nM final) to give a final reaction volume of […] in a 384 well Nunc HTRF plate. The reactions are incubated at 30° C. for 1.5 hours. The 620 nm fluorescence is then read on a Rubystar HTRF plate reader (BMG Labtechnologies) using a 50 millisecond delay followed by a 400 millisecond acquisition time window. Inhibitor IC50 values are derived from non-linear regression analysis of concentration response curves.

Chain of human autoBACE-2 (Q9Y5Z0 63-473 limits assumed): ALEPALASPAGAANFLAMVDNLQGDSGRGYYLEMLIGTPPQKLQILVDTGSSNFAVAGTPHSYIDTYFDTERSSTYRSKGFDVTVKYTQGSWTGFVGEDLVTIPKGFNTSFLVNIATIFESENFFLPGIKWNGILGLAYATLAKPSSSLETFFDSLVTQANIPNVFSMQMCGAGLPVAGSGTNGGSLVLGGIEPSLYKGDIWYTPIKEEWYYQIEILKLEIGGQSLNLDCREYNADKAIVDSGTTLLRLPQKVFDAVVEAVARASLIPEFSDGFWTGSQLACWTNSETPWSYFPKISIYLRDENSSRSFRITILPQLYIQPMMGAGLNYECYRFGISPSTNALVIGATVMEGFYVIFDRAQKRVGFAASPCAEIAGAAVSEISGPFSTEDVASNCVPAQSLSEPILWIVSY
Chain of soluble human BACE1 catalytic domain (P56817 75-416): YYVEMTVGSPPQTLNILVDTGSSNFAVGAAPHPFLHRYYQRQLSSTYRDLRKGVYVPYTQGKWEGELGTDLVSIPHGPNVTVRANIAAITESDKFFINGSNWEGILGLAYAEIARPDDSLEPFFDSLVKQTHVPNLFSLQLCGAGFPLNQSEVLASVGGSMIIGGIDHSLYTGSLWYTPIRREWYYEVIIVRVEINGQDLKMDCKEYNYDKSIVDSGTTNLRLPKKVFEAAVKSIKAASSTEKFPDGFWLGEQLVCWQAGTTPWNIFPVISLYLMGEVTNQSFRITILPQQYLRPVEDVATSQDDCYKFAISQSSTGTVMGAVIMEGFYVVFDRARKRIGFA

The Ki is the equilibrium dissociation constant of an inhibitor or competing ligand from its target. As for `CN1C(=N)N[C@](C)(c2sc(-c3ccnc(-c4cnco4)c3)cc2F)CS1(=O)=O` [Example 56], the inhibition constant Ki at human autoBACE-2 was 0.02 µM; in assay [1] it was 0.0235 µM. Consider `CN1C(=N)N[C@](C)(c2sc3c(-c4ccc(-c5ncco5)cc4)nccc3c2Cl)CS1(=O)=O` [Example 100], for which the inhibition constant (Ki) was 0.224 µM at human autoBACE-2 and 0.116 µM in assay [1]. Regarding `CN1C(=N)N[C@](C)(c2cc(-c3cc(F)cc(-c4cnco4)c3)cs2)CS1(=O)=O` [Example 24], the figures for the Ki (on human autoBACE-2; in assay [1]) were 0.018 µM and 0.081 µM, respectively. Taken in the same sequence, the figures for `CN1C(=N)N[C@](C)(c2sc(-c3cccc(-n4ccnc4)n3)cc2Cl)CS1(=O)=O` [Example 68] were 0.077 µM and 0.429 µM. As for `CN1C(=N)N[C@](C)(c2sc(-c3cccc(-c4ncno4)c3)cc2F)CS1(=O)=O` [Example 48], the Ki on human autoBACE-2 was 0.00063 µM; in assay [1] it was 0.00087 µM. Consider `CN1C(=N)N[C@](C)(c2cc(-c3cccc(-c4nnco4)c3)cs2)CS1(=O)=O` [Example 19], for which the inhibition constant Ki was 0.052 µM on human autoBACE-2 and 0.0192 µM in assay [1]. For `CN1C(=N)N[C@](C)(c2sc(-c3ccnc(-c4nc(C5CC5)no4)c3)cc2Cl)CS1(=O)=O` [Example 51], the Ki is 0.0025 µM at human autoBACE-2 and 0.127 µM in assay [1].

For `CN1C(=N)N[C@](C)(c2ncc(-c3cccc(-c4nnco4)c3)s2)CS1(=O)=O` [Example 27], the values for the Ki (at human autoBACE-2; in assay [1]) were 0.152 µM and 0.0138 µM, respectively. `CN1C(=N)N[C@](C)(c2sc(-c3ccnc(-c4cncnc4)c3)cc2F)CS1(=O)=O` [Example 55]: the values for the inhibition constant Ki (on human autoBACE-2; in assay [1]) were 0.212 µM and 1.25 µM, respectively. `CN1C(=N)N[C@](C)(c2sc3c(-c4cnc(-n5cccn5)nc4)nccc3c2Cl)CS1(=O)=O` [Example 97]: the Ki at human autoBACE-2 is 0.064 µM; in assay [1], 0.0612 µM.

As for `CN1C(=N)N[C@](C)(c2sc(-c3cncc(-c4nnc(C5CC5)o4)c3)cc2Cl)CS1(=O)=O` [Example 57], the Ki was 0.044 µM at human autoBACE-2 and 0.566 µM in assay [1].

Take `CN1C(=N)N[C@](C)(c2sc(-c3ccnc(-c4nc(C5CC5)no4)c3)cc2F)CS1(=O)=O` [Example 52]: the inhibitory constant (Ki) at human autoBACE-2 is 0.017 µM; in assay [1], 0.498 µM.

In the case of `CN1C(=N)N[C@](C)(c2sc(-c3ccc(F)c(-c4nnco4)c3)cc2Cl)CS1(=O)=O` [Example 33], the figures for the Ki (on human autoBACE-2; in assay [1]) were 0.01 µM and 0.0055 µM, respectively.

For the molecule `CN1C(=N)N[C@](C)(c2sc(-c3ccc(-c4cccnc4)cc3)cc2Cl)CS1(=O)=O` [Example 64], the Ki at human autoBACE-2 was 1.04 µM; in assay [1] it was 2.1 µM. Regarding `Cc1cnn(-c2ccc(-c3nccc4c(Cl)c([C@]5(C)CS(=O)(=O)N(C)C(=N)N5)sc34)c(F)c2)c1` [Example 119], the inhibition constant Ki is 0.417 µM on human autoBACE-2 and 0.189 µM in assay [1]. On to `CN1C(=N)N[C@](C)(c2sc(-c3cc(-c4nnco4)ccc3F)cc2Cl)CS1(=O)=O` [Example 31], for which the Ki was 0.0042 µM on human autoBACE-2 and 0.0017 µM in assay [1]. As to `CN1C(=N)N[C@](C)(c2sc(-c3ccc(-n4ccnn4)cc3)cc2Cl)CS1(=O)=O` [Example 71], the inhibition constant Ki is 0.654 µM at human autoBACE-2 and 1.6 µM in assay [1]. For the molecule `Cc1noc(-c2cc(-c3cc(F)c([C@]4(C)CS(=O)(=O)N(C)C(=N)N4)s3)ccn2)n1` [Example 50], the results for the Ki (on human autoBACE-2; in assay [1]) were 0.0023 µM and 0.0563 µM, respectively.

In the case of `CN1C(=N)N[C@](C)(c2sc(-c3ccnc(-c4ccncc4)c3)cc2F)CS1(=O)=O` [Example 73], the figures for the inhibition constant (Ki) (at human autoBACE-2; in assay [1]) were 0.123 µM and 0.338 µM, respectively.

In the case of `CN1C(=N)N[C@](C)(c2sc(-c3cncc(-c4ncco4)c3)cc2F)CS1(=O)=O` [Example 10], the values for the Ki (at human autoBACE-2; in assay [1]) were 0.001 µM and 0.0157 µM, respectively.

Take `CN1C(=N)N[C@](C)(c2sc(-c3ccc(-n4nccn4)cc3)cc2Cl)CS1(=O)=O` [Example 67]: the Ki was 0.555 µM at human autoBACE-2 and 2.27 µM in assay [1]. On to `CN1C(=N)N[C@](C)(c2sc3c(-c4ccc(-c5cn[nH]c5)cc4F)nccc3c2Cl)CS1(=O)=O` [Example 114], for which the results for the Ki (on human autoBACE-2; in assay [1]) were 0.134 µM and 0.33 µM, respectively. As for `Cc1cnn(-c2cc(-c3cc(F)c([C@]4(C)CS(=O)(=O)N(C)C(=N)N4)s3)ccn2)c1` [Example 75], the inhibition constant (Ki) on human autoBACE-2 was 2.53 µM; in assay [1], 2.78 µM. Regarding `CN1C(=N)N[C@](C)(c2sc3c(-c4ccc(-c5ncco5)cc4)cccc3c2F)CS1(=O)=O` [Example 90], the inhibition constant (Ki) on human autoBACE-2 is 0.214 µM; in assay [1] it was 0.104 µM. Consider `CN1C(=N)N[C@](C)(c2sc3c(-c4ccc(C5CC(=O)N5)cc4)nccc3c2Cl)CS1(=O)=O` (some centres unmarked) [Example 101], for which the inhibitory constant (Ki) is 0.116 µM at human autoBACE-2 and 0.959 µM in assay [1].

For `CN1C(=N)N[C@](C)(c2sc3c(-c4ccc(-c5ccoc5)cc4F)nccc3c2Cl)CS1(=O)=O` [Example 107], the Ki on human autoBACE-2 was 0.27 µM; in assay [1], 0.0197 µM. On to `CN1C(=N)N[C@](C)(c2sc3c(-c4ccc(N5CCOCC5)nc4)cccc3c2F)CS1(=O)=O` [Example 94], for which the Ki at human autoBACE-2 was 9.52 µM; in assay [1], 1.5 µM. On the same counts, the results for `CN1C(=N)N[C@](C)(c2sc(-c3cccc(-c4noc(C5CC5)n4)c3)cc2F)CS1(=O)=O` [Example 45] are 0.003 µM and 0.323 µM. `CN1C(=N)N[C@](C)(c2cc(-c3cncc(-c4cnco4)c3)cs2)CS1(=O)=O` [Example 22]: the Ki was 0.098 µM at human autoBACE-2 and 0.0859 µM in assay [1]. Taken in the same sequence, the figures for `CN1C(=N)N[C@](C)(c2sc3c(-c4ccc(C5CC5)nc4)cccc3c2F)CS1(=O)=O` [Example 96] were 9.52 µM and 0.327 µM. For the molecule `CN1C(=N)N[C@](C)(c2sc(-c3ccnc(-c4ccccc4)c3)cc2F)CS1(=O)=O` [Example 54], the inhibition constant Ki is 0.012 µM on human autoBACE-2 and 0.132 µM in assay [1]. Regarding `Cc1cnc(-c2ccc(-c3cccc4c(F)c([C@]5(C)CS(=O)(=O)N(C)C(=N)N5)sc34)cc2)nc1` [Example 88], the inhibitory constant (Ki) was 3.84 µM on human autoBACE-2 and 9.13 µM in assay [1]. In the case of `CN1C(=N)N[C@](C)(c2sc(-c3ccc(-c4ccccn4)cc3)cc2Cl)CS1(=O)=O` [Example 65], the figures for the Ki (at human autoBACE-2; in assay [1]) were 1.61 µM and 3.52 µM, respectively. Taken in the same sequence, the figures for `CN1C(=N)N[C@](C)(c2sc3c(-c4ccc(-n5cccn5)cc4)nccc3c2Cl)CS1(=O)=O` [Example 102] were 0.959 µM and 0.0299 µM. On the same counts, the results for `CN1C(=N)N[C@](C)(c2sc(-c3cc(F)cc(-c4nnco4)c3)cc2Cl)CS1(=O)=O` [Example 28] are 0.00028 µM and 0.0005 µM. `CN1C(=N)N[C@](C)(c2sc(-c3ccnc(-n4cccn4)c3)cc2F)CS1(=O)=O` [Example 77]: the Ki on human autoBACE-2 was 0.069 µM; in assay [1] it was 0.162 µM. For the molecule `CN1C(=N)N[C@](C)(c2sc(-c3cccc(-c4nnco4)c3)cc2F)CS1(=O)=O` [Example 2], the values for the inhibitory constant (Ki) (on human autoBACE-2; in assay [1]) were 0.0138 µM and 0.0017 µM, respectively. On to `CN1C(=N)N[C@](C)(c2sc3c(-c4ccc(C5CC5)nc4)nccc3c2Cl)CS1(=O)=O` [Example 79], for which the Ki on human autoBACE-2 is 0.022 µM; in assay [1], 0.282 µM. As to `CN1C(=N)N[C@](C)(c2sc(-c3cccc(-c4cc[nH]n4)c3)cc2F)CS1(=O)=O` [Example 4], the Ki is 0.00035 µM at human autoBACE-2 and 0.0107 µM in assay [1]. As for `CN1C(=N)N[C@](C)(c2sc(-c3cc(-c4nnco4)ncc3F)cc2Cl)CS1(=O)=O` [Example 58], the figures for the Ki (on human autoBACE-2; in assay [1]) were 0.066 µM and 0.0683 µM, respectively. For the molecule `CN1C(=N)N[C@](C)(c2sc(-c3cccc(-c4nnco4)c3F)cc2Cl)CS1(=O)=O` [Example 35], the values for the Ki (at human autoBACE-2; in assay [1]) were 0.03 µM and 0.0607 µM, respectively. On to `CN1C(=N)N[C@](C)(c2sc(-c3cncc(-c4ncco4)c3)cc2Cl)CS1(=O)=O` [Example 9], for which the figures for the Ki (at human autoBACE-2; in assay [1]) were 0.00031 µM and 0.0069 µM, respectively.

`CN1C(=N)N[C@](C)(c2sc3c(-c4ccc(-c5nccs5)cc4)nccc3c2Cl)CS1(=O)=O` [Example 106]: the Ki on human autoBACE-2 was 1.64 µM; in assay [1], 0.27 µM. With `Cc1nnc(-c2cccc(-c3cc(Cl)c([C@]4(C)CS(=O)(=O)N(C)C(=N)N4)s3)c2)o1` [Example 15], the Ki at human autoBACE-2 was 0.0038 µM.

Regarding `Cc1nonc1N1CCN(c2nccc3c(Cl)c([C@]4(C)CS(=O)(=O)N(C)C(=N)N4)sc23)CC1` [Example 120], the Ki at human autoBACE-2 was 0.096 µM. Take `Cc1nnc(-c2cccc(-c3cc(Cl)c([C@]4(C)CS(=O)(=O)N(C)C(=N)N4)s3)c2)o1` [Example 53]: the Ki in assay [1] is 0.129 µM.
